# Reference: patent US11331327B2, “Antibacterial use of halogenated salicylanilides” (UNION therapeutics A/S, priority 2014, dated 2022)
# “And” between values parts separate entries of the source, which are not always exact repeats. Identical values can stand only once. Like-named read-outs stand apart in the source and are kept apart here.
# Columns and labels:
# MRSA 01 [1] = assay: Effect of pH on the antibacterial activity (MIC) of niclosamide; type: cell-based, Staphylococcus aureus; settings: for MIC: Staphylococcus aureus, MRSA
# Experimental: This strain was conserved in Luria Bertani (LB) Broth supplemented with glycerol 15% (v/v) at −80° C., and reactivated by isolation on LB agar plates. It was then cultivated aerobically in Mueller Hinton (MH) Broth-cation adjusted at 37° C.
# The pH of Mueller-Hinton Broth cation-adjusted was adjusted with HCl 2M to 7, 6.5, 6, 5.5, 5, 4.5 and […]. Ten ml of medium for each pH were prepared. pH of non-adjusted MHBII was equal to 7.4.
# Each pH-adjusted samples were filtered on 0.2 μm filters before being used for the MIC determination assay.
# Bacterial culture was stopped in its exponential growth phase and plates were inoculated with the approximate concentration of 5×10^5 cells per well. Plates were incubated at 37° C. for 18 hours (S. aureus).
# The experiment was performed in triple biological replicates.
# P. aeruginosa = settings: cited from earlier work
# [2] = cats, p.o.; cited from earlier work
# MRSA 01 [3] = assay: Colony-forming unit (CFU) in skin lesions of mice challenged with MRSA 01; type: in vivo, Staphylococcus aureus; settings: female Balb/c mice, MRSA 01 skin lesion, topical twice daily for three days, Experiment 1
# Experimental: Three animal studies were performed with niclosamide and fusidic acid as comparison with different formulations and doses.
# In each experiment, female Balb/c mice received a skin lesion approximately 1 cm^2 and were challenged with 1.5×10^8 cfu MRSA 01 topically. Twenty-four hours after the wound formation and the contamination, mice were treated topically with 0.05 ml twice daily for three days. Mice were sacrificed on day 4, skin lesions were excised and cfu quantitated. Fusidin ointment (2% from Leo Pharma) was included as control.
# MRSA 01 [4] = assay: Time-kill assay; type: cell-based, Staphylococcus aureus; settings: niclosamide 4 μg/ml (MIC×10), initial inoculum 7 log10 cfu/ml
# Experimental: Assay was performed in 20 ml of medium. It included a negative control (medium without bacteria), a positive control (bacteria grown without niclosamide) and the assay (bacteria grown with niclosamide). […] This experiment was performed with the primary test microorganism indicated above.
# The overnight culture was stopped and OD600 was measured. Culture was then diluted in indicated medium to obtain an OD600 of 0.25 in order to have about 5×10^8 cfu/ml. Two hundred μl of this diluted culture were then added in all conditions except in the negative control. Initial bacterial concentration was about 5×10^6 cfu/ml. Tubes were incubated aerobically at 37° C. for 24 hours.
# Bacteria were enumerated before the incubation, after 30 minutes, 1, 2, 4, 8 and 24 hours of incubation by serial dilutions in NaCl 0.9% and plating on LB agar, with 2 plates per dilution. Plates were incubated at 37° C. and colonies enumerated after 24 hours.
# S. aureus strains = assay: Minimum Inhibitory Concentration (MIC) assay, Example 1, S. aureus strains; type: cell-based; settings: Staphylococcus aureus
# Experimental: (§1) Strains were conserved in Luria Bertani (LB) Broth (S. aureus) or Brain Heart Infusion (BHI) (S. pyogenes) supplemented with glycerol 15% (v/v) at −80° C., and reactivated by isolation on LB (S. aureus) or BHI (S. pyogenes) agar plates. Strains were cultivated in Mueller Hinton (MH) Broth-cation adjusted (S. aureus) supplemented with lysed horse blood 2.5% (v/v) (S. pyogenes). All strains were cultivated at 37° C., aerobically for S. aureus strains.
# (§2) Bacterial cultures were stopped in their exponential growth phase and plates were inoculated with the approximate concentration of 10^3 cells per well. Plates were incubated at 37° C. for 18 hours (S. aureus) or 24 hours (S. pyogenes). Optical density at a wavelength of 600 nm was measured at the end of the incubation time. […] Experiments were performed at least as triplicate biological replicates with all strains.
# [5] = tested on: Streptococcus pyogenes strains; assay: MIC assay, Example 2, S. pyogenes strains (in BHI); type: cell-based
# Experimental: Strains were conserved in Luria Bertani (LB) Broth (S. aureus) or Brain Heart Infusion (BHI) (S. pyogenes) supplemented with glycerol 15% (v/v) at −80° C., and reactivated by isolation on LB (S. aureus) or BHI (S. pyogenes) agar plates. Strains were cultivated in Mueller Hinton (MH) Broth-cation adjusted (S. aureus) or BHI (S. pyogenes). All strains were cultivated aerobically (microaerobically for S. pyogenes strains) at 37° C. […] Bacterial cultures were stopped in their exponential growth phase and plates were inoculated with the approximate concentration of 5×10^5 cells per well.
# [6] = tested on: quorum sensing response in P. aeruginosa; settings: reduction of quorum sensing response in P. aeruginosa; cited from earlier work
# [7] = cited from earlier work
# S. pyogenes strains = assay: Minimum Inhibitory Concentration (MIC) assay, Example 1, S. pyogenes strains; type: cell-based, Streptococcus pyogenes
# Experimental: as §1, §2
# [8] = S. pyogenes strains with MIC 0.0625 μg/ml
# [9] = S. pyogenes strains with MIC 0.5 μg/ml
# [10] = S. pyogenes strains with MIC […]
smiles,measurement,setting,value
"O=C(Nc1ccc([N+](=O)[O-])cc1Cl)c1cc(Cl)ccc1O [Niclosamide, 5-chloro-N-(2-chloro-4-nitrophenyl)-2-hydroxybenz-amide]",inhibitory activity against MRSA 01 as a function of pH,"MRSA 01 [1]; MRSA 01, pH 7.4 to 5.5",increased when pH was decreased
same,pH at which the maximal inhibitory effect was observed,"MRSA 01 [1]; MRSA 01, pH-adjusted Mueller-Hinton Broth",5.5
same,MIC,"MRSA 01 [1]; MRSA 01, pH 5.5 (actual pH 5.530), Replicate 3",≤ 0.008 µg/mL
same,MIC,"MRSA 01 [1]; MRSA 01, pH 5.5 (actual pH 5.547), Replicate 2",≤ 0.008 µg/mL
same,MIC,"MRSA 01 [1]; MRSA 01, pH 5.5 (actual pH 5.569), Replicate 1",≤ 0.03 µg/mL
same,MIC,"MRSA 01 [1]; MRSA 01, pH 6.0 (actual pH 5.893), Replicate 1",0.06 µg/mL
same,MIC,"MRSA 01 [1]; MRSA 01, pH 6.0 (actual pH 5.955), Replicate 2",0.06 µg/mL
same,MIC,"MRSA 01 [1]; MRSA 01, pH 6.0 (actual pH 5.980), Replicate 3",0.016 µg/mL
same,MIC,"MRSA 01 [1]; MRSA 01, pH 6.5 (actual pH 6.512), Replicate 1",0.125 µg/mL
same,MIC,"MRSA 01 [1]; MRSA 01, pH 6.5 (actual pH 6.540), Replicate 3",0.03 µg/mL
same,MIC,"MRSA 01 [1]; MRSA 01, pH 6.5 (actual pH 6.566), Replicate 2",0.06 µg/mL
same,MIC,"MRSA 01 [1]; MRSA 01, pH 7.0 (actual pH 6.921), Replicate 1",0.25 µg/mL
same,MIC,"MRSA 01 [1]; MRSA 01, pH 7.0 (actual pH 7.025), Replicate 3",0.125 µg/mL
same,MIC,"MRSA 01 [1]; MRSA 01, pH 7.0 (actual pH 7.071), Replicate 2",0.125 µg/mL
same,MIC,"MRSA 01 [1]; pH 7.4, MRSA 01, pH not adjusted (actual pH 7.4), Replicate 1",0.5 µg/mL
same,MIC,"MRSA 01 [1]; pH 7.4, MRSA 01, pH not adjusted (actual pH 7.4), Replicate 2",0.25 µg/mL
same,MIC,"MRSA 01 [1]; pH 7.4, MRSA 01, pH not adjusted (actual pH 7.4), Replicate 3",0.5 µg/mL
same,effect on growth of P. aeruginosa,P. aeruginosa,does not affect the growth
same,LD50,[2],> 1000 mg/kg
same,bacterial reduction (CFU in skin lesions) compared to control vehicles,MRSA 01 [3],significant bacterial reductions
same,bactericidal or bacteriostatic effect (time-kill curve),MRSA 01 [4],bacteriostatic effect
same,MIC,"S. aureus strains; S. aureus strains, read-out: Mic100 S. aureus",≤ 0.4 µg/mL and ≤ 1.25 µM
same,MIC,"S. aureus strains; against S. aureus strains, including strains resistant to fusidic acid and to mupirocin (FIG. 1), read-out: MIC",≤ 0.4 µg/mL
same,MIC distribution (percentage of strains),[5]; [8],25%
same,MIC distribution (ratio of strains),[5]; [8],(1/4)
same,MIC distribution (percentage of strains),[5]; [9],25%
same,MIC distribution (ratio of strains),[5]; [9],(1/4)
same,MIC distribution (percentage of strains),[5]; [10],25%
same,MIC distribution (ratio of strains),[5]; [10],(1/4)
same,MIC,"[5]; Streptococcus pyogenes, all targeted S. pyogenes strains",≤ 0.5 µg/mL
same,concentration at which some inhibition was detected,[6],1 µM
same,concentration required for optimal activity,[6],20 µM
same,LD50 mice p.o,[7]; Table 3,>1500 mg/kg
same,LD50,"[7]; mice, p.o.",> 5000 mg/kg
same,MIC,"S. pyogenes strains; Streptococcus pyogenes, S. pyogenes strains, read-out: Mic100 S. pyogenes",≤ 3 µg/mL and ≤ 3 µM
same,MIC,"S. pyogenes strains; against Streptococcus pyogenes strains (FIG. 1), read-out: MIC",≤ 3.2 µg/mL
